Like-named read-outs stand apart in the source and are kept apart here.
Tests used:
Test in all cases: MIC, serial dilutions in Müller-Hinton broth
Format in all cases: cell-based
[1] = tested on: Acinetobacter spp. 1
Description: (§1) A comparative assessment of the spectrum of antibacterial action was carried out on archival and clinical strains of gram-positive and gram-negative microorganisms in accordance with the [Opredeleniye chuvstvitel'nosti mikroorganizmov k antibakterial'nym preparatam (Metodicheskiye ukazaniya MUK 4.2.1890-04). Utverzhdeny i vvedeny v deystviye Glavnym gosudarstvennym sanitarnym vrachom Rossiyskoy Federatsii G. G. Onishchenko 04.03.2004 g. Determination of the sensitivity of microorganisms to antibacterial drugs (Guidelines MUK 4.2.1890-04). Approved and put into effect by the Chief State Sanitary Doctor of the Russian Federation G. G. Onishchenko on 4 Mar. 2004].
(§2) The value of the minimum inhibitory concentration (MIC) was determined by the method of serial dilutions on Müller-Hinton broth using 96-well sterile plates. Two-fold dilutions of the test substances in a nutrient medium were prepared. The final concentrations were 1-128 ug/ml. The growth of cultures was assessed visually, comparing the growth of microorganisms in the presence of test compounds with the growth of culture without them. […] The first lowest concentration of the studied substance (from a series of consecutive dilutions), where bacterial growth is not visually determined, is considered to be the minimum inhibitory concentration (MIC). MIC was determined by the method of serial dilutions in broth with increment=2, so the differences of neighboring dilutions are not considered to be significant. In each experience there is a positive (broth with growing culture) and a negative (broth without growing culture) control.
(§3) To determine the MIC, 10 μl of culture medium was taken from those wells in which growth was not observed, and inoculation was performed on a dense Müller-Hinton broth. For the preparation of the inoculum, a pure, daily culture of gram-positive and gram-negative microorganisms grown on a dense nutrient medium was used. Nutrient medium is Müller-Hinton broth, which was prepared from dry media (Müller-Hinton broth, Acumedia, Baltimore), cultivation was carried out on agarized Müller-Hinton broth, including an additional 2% agar. The media were autoclaved at 121° C. for 15 minutes. In a sterile isotonic solution of sodium chloride, a suspension of microorganisms was prepared, adjusting the inoculum density to 0.5 according to the McFarland standard (1.5·10^8 CFU/ml). Then, the resulting inoculum was diluted to a concentration of 10^7 CFU/ml with Müller-Hinton broth. The inoculum was used within 15 minutes after preparation; the purity of the bacterial strains was monitored before each experiment.
(§4) 100 μl of Müller-Hinton broth was added to the wells of each plate; The tested substance was introduced into the first well at a concentration of 128 μg/ml in a volume of 100 μl and its concentration was adjusted to 0.5 μg/ml by consecutive two-fold dilution. Then, the prepared inoculum (100 μI) was added to each well, thereby diluting twice the concentration of the studied compounds. […] In addition, the purity of nutrient media and solvents was monitored. The plates were incubated in a thermostat at 37° C. for 24 hours. The growth of cultures was assessed visually, comparing the growth of microorganisms in the presence of test compounds with the growth of culture without them.
(§5) For the MIC was taken the minimum concentration of the studied compounds, providing complete suppression of the visible growth of the studied strains of microorganisms. The maximum value obtained in three independent experiments was taken as the MIC of the compound.

[2] = tested on: E. coli CDCF-50
Description: as §1, §2, §3, §4, §5

[3] = tested on: E. faecium 29
Description: as §1, §2, §3, §4, §5

[4] = tested on: E. faecium 32
Description: as §1, §2, §3, §4, §5

[5] = tested on: Enterobacter spp. 16
Description: as §1, §2, §3, §4, §5

[6] = tested on: Kl. pneumoniae 1766
Description: as §1, §2, §3, §4, §5

[7] = tested on: Klebsiella spp. 10
Description: as §1, §2, §3, §4, §5

[8] = tested on: Klebsiella spp. 12
Description: as §1, §2, §3, §4, §5

[9] = tested on: M. luteus
Description: as §1, §2, §3, §4, §5

[10] = tested on: Ps. aeruginosa 1945 PR
Description: as §1, §2, §3, §4, §5

[11] = tested on: S. aureus 1130 MRSA
Description: as §1, §2, §3, §4, §5

[12] = tested on: S. aureus 1145 MRSA
Description: as §1, §2, §3, §4, §5

[13] = tested on: S. aureus 1163 MRSA
Description: as §1, §2, §3, §4, §5

[14] = tested on: S. aureus 1168 MRSA
Description: as §1, §2, §3, §4, §5

[15] = tested on: S. aureus 18
Description: as §1, §2, §3, §4, §5

[16] = tested on: S. aureus 20
Description: as §1, §2, §3, §4, §5

[17] = tested on: S. aureus 967 MRSA
Description: as §1, §2, §3, §4, §5

[18] = tested on: S. aureus ATCC 209p
Description: as §1, §2, §3, §4, §5

[19] = tested on: S. epidermidis 15990
Description: as §1, §2, §3, §4, §5

[20] = tested on: S. haemoliticus 837 MRSA
Description: as §1, §2, §3, §4, §5

[21] = tested on: S. marcescens 1966 PR
Description: as §1, §2, §3, §4, §5

[22] = tested on: S. marcescens
Description: as §1, §2, §3, §4, §5

CCCCCCCCCCCC[N+](C)(C)Cc1cnc(C[N+](C)(C)CCCCCCCCCCCC)c2c1COC(CC)O2 (stereo not drawn) [Compound I, 5,8-(Bis(methylene (N, N-dimethyl-N-dodecylammonium))-2-ethyl-4H-[1,3]dioxino [4,5-c]pyridiniumdichloride]
MIC ([1]; Acinetobacter spp. 1, inoculum 10^7 CFU/ml, read-out: MIC): 16 µg/mL | MIC ([2]; Escherichia coli, CDCF50, E. coli CDCF-50, inoculum 10^7 CFU/ml, read-out: MIC): 8 µg/mL | MIC ([3]; Enterococcus faecium, E. faecium 29, inoculum 10^7 CFU/ml, read-out: MIC): 0.03 µg/mL | MIC ([4]; Enterococcus faecium, E. faecium 32, inoculum 10^7 CFU/ml, read-out: MIC): 0.03 µg/mL | MIC ([5]; Enterobacter spp. 16, inoculum 10^7 CFU/ml, read-out: MIC): 8 µg/mL | MIC ([6]; Klebsiella pneumoniae, Kl. pneumoniae 1766, inoculum 10^7 CFU/ml, read-out: MIC): 16 µg/mL | MIC ([7]; Klebsiella spp. 10, inoculum 10^7 CFU/ml, read-out: MIC): 8 µg/mL | MIC ([8]; Klebsiella spp. 12, inoculum 10^7 CFU/ml, read-out: MIC): 16 µg/mL | MIC ([9]; Micrococcus luteus, M. luteus, inoculum 10^7 CFU/ml, read-out: MIC): 2 µg/mL | MIC ([10]; Pseudomonas aeruginosa, Ps. aeruginosa 1945 PR, inoculum 10^7 CFU/ml, read-out: MIC): 64 µg/mL | MIC ([11]; Staphylococcus aureus, S. aureus 1130 MRSA, inoculum 10^7 CFU/ml, read-out: MIC): 2 µg/mL | MIC ([12]; Staphylococcus aureus, S. aureus 1145 MRSA, inoculum 10^7 CFU/ml, read-out: MIC): 2 µg/mL | MIC ([13]; Staphylococcus aureus, S. aureus 1163 MRSA, inoculum 10^7 CFU/ml, read-out: MIC): 4 µg/mL | MIC ([14]; Staphylococcus aureus, S. aureus 1168 MRSA, inoculum 10^7 CFU/ml, read-out: MIC): 1 µg/mL | MIC ([15]; Staphylococcus aureus, S. aureus 18, inoculum 10^7 CFU/ml, read-out: MIC): 4 µg/mL | MIC ([16]; Staphylococcus aureus, S. aureus 20, inoculum 10^7 CFU/ml, read-out: MIC): 4 µg/mL | MIC ([17]; Staphylococcus aureus, S. aureus 967 MRSA, inoculum 10^7 CFU/ml, read-out: MIC): 16 µg/mL | MIC ([18]; Staphylococcus aureus, ATCC209P, S. aureus ATCC 209p, inoculum 10^7 CFU/ml, read-out: MIC): 2 µg/mL | MIC ([19]; Staphylococcus epidermidis, S. epidermidis 15990, inoculum 10^7 CFU/ml, read-out: MIC): 4 µg/mL | MIC ([20]; S. haemoliticus 837 MRSA, inoculum 10^7 CFU/ml, read-out: MIC): 8 µg/mL | MIC ([21]; Serratia marcescens, S. marcescens 1966 PR, inoculum 10^7 CFU/ml, read-out: MIC): 32 µg/mL | MIC ([22]; Serratia marcescens, S. marcescens, inoculum 10^7 CFU/ml, read-out: MIC): 4 µg/mL

CCCCCCCCCCCCCC(=O)NCCC[N+](C)(C)Cc1ccccc1.O.[Cl-] [Miramistin, benzyldimethyl [3-(myristoylamino)propyl]-ammonium chloride monohydrate]
MIC ([1]; Acinetobacter, SPP.1): 64 µg/mL | MIC ([2]; Escherichia coli, CDCF50): 64 µg/mL | MIC ([3]; Enterococcus faecium, 29): 8 µg/mL | MIC ([4]; Enterococcus faecium, 32): < 0.5 µg/mL | MIC ([5]; Enterobacter, SPP.16): 64 µg/mL | MIC ([6]; Klebsiella pneumoniae, 1766): 64 µg/mL | MIC ([7]; Klebsiella, SPP.10): 64 µg/mL | MIC ([8]; Klebsiella, SPP.12): > 64 µg/mL | MIC ([9]; Micrococcus luteus): 2 µg/mL | MIC ([10]; Pseudomonas aeruginosa, 1945PR): > 64 µg/mL | MIC ([11]; Staphylococcus aureus, MRSA): 4 µg/mL | MIC ([12]; Staphylococcus aureus, MRSA): 8 µg/mL | MIC ([13]; Staphylococcus aureus, MRSA): 4 µg/mL | MIC ([14]; Staphylococcus aureus, MRSA): 8 µg/mL | MIC ([15]; Staphylococcus aureus, 18): 16 µg/mL | MIC ([16]; Staphylococcus aureus, 20): 32 µg/mL | MIC ([17]; Staphylococcus aureus, MRSA): 16 µg/mL | MIC ([18]; Staphylococcus aureus, ATCC209P): 8 µg/mL | MIC ([19]; Staphylococcus epidermidis, 15990): 8 µg/mL | MIC [20]: 64 µg/mL | MIC ([21]; Serratia marcescens, 1966PR): 64 µg/mL | MIC ([22]; Serratia marcescens): 32 µg/mL

alkyldimethyl(phenylmethyl) ammonium chloride [Benzalconium chloride]
MIC ([1]; Acinetobacter spp. 1, inoculum 10^7 CFU/ml): >64 µg/mL | MIC ([2]; E. coli CDCF-50, inoculum 10^7 CFU/ml): 4 µg/mL | MIC ([3]; E. faecium 29, inoculum 10^7 CFU/ml): <0.5 µg/mL | MIC ([4]; E. faecium 32, inoculum 10^7 CFU/ml): <0.5 µg/mL | MIC ([5]; Enterobacter spp. 16, inoculum 10^7 CFU/ml): 4 µg/mL | MIC ([6]; Kl. pneumoniae 1766, inoculum 10^7 CFU/ml): 16 µg/mL | MIC ([7]; Klebsiella spp. 10, inoculum 10^7 CFU/ml): 1 µg/mL | MIC ([8]; Klebsiella spp. 12, inoculum 10^7 CFU/ml): 2 µg/mL | MIC ([9]; M. luteus, inoculum 10^7 CFU/ml): 1 µg/mL | MIC ([10]; Ps. aeruginosa 1945 PR, inoculum 10^7 CFU/ml): >64 µg/mL | MIC ([11]; S. aureus 1130 MRSA, inoculum 10^7 CFU/ml): 2 µg/mL | MIC ([12]; S. aureus 1145 MRSA, inoculum 10^7 CFU/ml): 2 µg/mL | MIC ([13]; S. aureus 1163 MRSA, inoculum 10^7 CFU/ml): 4 µg/mL | MIC ([14]; S. aureus 1168 MRSA, inoculum 10^7 CFU/ml): 2 µg/mL | MIC ([15]; S. aureus 18, inoculum 10^7 CFU/ml): <0.5 µg/mL | MIC ([16]; S. aureus 20, inoculum 10^7 CFU/ml): <0.5 µg/mL | MIC ([17]; S. aureus 967 MRSA, inoculum 10^7 CFU/ml): 8 µg/mL | MIC ([18]; S. aureus ATCC 209p, inoculum 10^7 CFU/ml): 4 µg/mL | MIC ([19]; S. epidermidis 15990, inoculum 10^7 CFU/ml): 1 µg/mL | MIC ([20]; S. haemoliticus 837 MRSA, inoculum 10^7 CFU/ml): 16 µg/mL | MIC ([21]; S. marcescens 1966 PR, inoculum 10^7 CFU/ml): 64 µg/mL | MIC ([22]; S. marcescens, inoculum 10^7 CFU/ml): 2 µg/mL

From US11014934B2, “Antiseptic drug” (AO “TATKHIMFARMPREPARATY”, priority 2017, dated 2021)
